Measured values as given in patent US20020127282A1, “Multivalent silver pharmaceuticals” (priority 1991, published 2002).
Where two headings read alike, the source gives them in different places.

Key:
Chorella species = assay type: cell-based; conditions: within 5 minutes; Chorella species incubated for 10 days in algae nutrient
Protocol: (§4) Select compounds of said moieties were also evaluated against algae utilizing Chorella species incubated for 10 days in algae nutrient. […] It was evaluated at 0.5 and 1.0 PPM on gram positive and negative cultures in the presence of 10 PPM sodium persulfate.

E. coli [1] = conditions: trypticase soy nutrient broth
Protocol: (§1) More stringent testing was then performed in which the cultures were actually placed in trypticase soy nutrient broth, which allowed the pathogens being tested to replicate without being detached from its own food supply.

[2] = test system: Pseudomonas aeruginosa 9027; conditions: concentration not given
Protocol: as §1

[3] = test system: Streptococcus faecalis strain 10541; conditions: trypticase soy nutrient broth
Protocol: as §1

[4] = test system: Saccharomycetpideae variety; conditions: Sabouraud dextrose broth
Source text: Silver tetroxide was further evaluated in analogous nutrient used for yeasts and molds, namely, Sabouraud dextrose broth.

[5] = rats
Protocol: (§2) Tests were conducted to see whether said tetroxide posed any harm to the human body. Accordingly, a 3% concentrate of the compound was prepared for a series of evaluations.
The first evaluation met the requirements of Code of Federal Regulations (40 CFR 160). It consisted of determining the single dose toxicity in rats or LD50.

[6] = rabbits, dermal application
Protocol: as §2
The second evaluation was for acute dermal toxicity in rabbits. The protocol, 40 CFR 158.135, 81-2, was to determine the LD50 for dermal application.

[7] = albino rabbits, oxide concentrate
Protocol: as §2
The third evaluation, entitled “Primary Dermal Irritation in Albino Rabbits”, conformed to 40 CFR 160. It consisted of exposing the rabbits for prolonged periods of time and observing edema, erythema, ulceration, necrosis and any other evidence of dermal reactions or tissue destruction.

[8] = crystal concentrate applied
Protocol: as §2
The fourth evaluation dealt with primary eye irritation. This also was in conformity with 40 CFR 160.

Bacillus subtilis 6633 = test system: Bacillus subtilis 6633
Protocol: (§3) Both the prepared and commercial materials were submitted for bactericidal evaluation following “good laboratory practice” regulations as set forth in Federal regulations (FIFRA and ffdca/40 CFR 150, May 2, 1984). The silver materials were tested as to whether they could kill pathogenic microorganisms with the intent of utilizing them in pharmaceutical applications. […] Strains of gram positive bacteria were chosen for the evaluation. One family of pathogens that are known for their deleterious effects on humans are popularly called “staph” infections. These infections are commonly contracted in hospitals having lax infectious screening procedures. Accordingly, three staph strains were selected as follows for evaluation: Staphylococcus aureus 9027 and 27543, and Staphylococcus epidermidis 12228. The inoculum nutrient broth was prepared according to AOAC specifications so as to contain 0.6-1 million organisms per drop of inoculum, each drop being equal to 0.05 ml. The broth itself was trypticase soy broth BBL 11766 prepared according to label instructions. Accordingly, the broth was prestandardized for the microorganisms in question in order to assure that the number of organisms remained constant within the margins of statistical allowance during the test period. […] Other gram positive bacteria pathogens were similarly evaluated.

[9] = test system: Candida albicans strain 16464; conditions: Sabouraud dextrose broth
Protocol: as §3

Micrococcus luteus 9341 = test system: Micrococcus luteus 9341
Protocol: as §3

[10] = test system: Staphylococcus epidermidis 12228; conditions: 24 hours at 34-35° C., 10 PPM sodium persulfate
Protocol: as §3

[11] = test system: Streptococcus pyogenes 7958
Protocol: as §3

Streptococcus faecalis = conditions: 0.5 PPM; within 0.5 minutes; 10 PPM sodium persulfate; AOAC protocol
Protocol: as §4

E. coli [12] = conditions: 0.5 PPM; within 0.5 minutes; 10 PPM sodium persulfate; AOAC protocol
Protocol: as §4

[13] = test system: Enterobacter cloacac 13047; conditions: concentration not given
Candida albercans = conditions: Sabouraud dextrose broth
Staphylococcus aureus = conditions: 24 hours at 34-35° C., 10 PPM sodium persulfate
Protocol: (§5) Once it could be determined that the devices inhibited a particular microorganism, the minimal concentration required of Ag4O4 was determined to inhibit the microorganism in nutrient broth. Strains of gram positive bacteria were chosen for the evaluation. […] Accordingly, three staph strains were selected as follows for evaluation: Staphylococcus aureus 9027 and 27543, and Staphylococcus epidermidis 12228. The inoculum nutrient broth was prepared according to AOAC specifications so as to contain 0.6-1 million organisms per drop of inoculum, each drop being equal to 0.05 ml. The broth itself was trypticase soy broth BBL 11766 prepared according to label instructions. Accordingly, the broth was prestandardized for the microorganisms in question in order to assure that the number of organisms remained constant within the margins of statistical allowance during the test period.

[14] = test system: Streptococcus ogalactiae 27956
Protocol: as §5

In the case of `[Ag+].[Ag+].[Ag+].[Ag+].[O-2].[O-2].[O-2].[O-2]` [Tetrasilver tetroxide], the “concentration effecting 100% kills of algae” value (Chorella species) is reported as “about 1 PPM”, the “concentration achieving 100% kills” value (E. coli [1]; E. coli strain 10231) is reported as 2.5 PPM and the “concentration achieving 100% kills” value (E. coli [1]; E. coli strain 25254) is reported as 2.5 PPM. The kills [2] was 100%, the “concentration achieving 100% kills” value [3] was 5.0 PPM and the “concentration at which totally killed” value [4] was 1.25 PPM. For the same compound, the FDA toxicity category ([5]; single dose toxicity) was “category IV”, the LD50 ([5]; single dose, 3% concentrate, all animals survived) was “greater than 5000 mg./Kg” and the “toxicity category (acute dermal)” value [6] was “category III”. For the same compound, the “dermal LD50” value ([6]; all animals survived maximum dose) was “greater than 2000 mg./Kg”, the “FDA category as dermal agent” value [7] was “category IV” and the “dermal reactions (edema, erythema, ulceration, necrosis, tissue destruction)” value ([7]; prolonged exposure) was “none”. For the same compound, the “FDA category for eye effects” value [8] was “category IV”, the eye irritation [8] was “no eye irritation” and the “minimal inhibiting concentration required for 100% kills” value (Bacillus subtilis 6633) was 5.00 PPM. The “concentration completely inhibiting growth” value [9] was 2.5 PPM, the “minimal inhibiting concentration required for 100% kills” value (Micrococcus luteus 9341) was 1.25 PPM and the “minimal concentration to inhibit the microorganism” value [10] was 0.625 PPM. For the same compound, the “minimal inhibiting concentration required for 100% kills” value [11] was 2.50 PPM, the “kill of colonies of Streptococcus faecalis” value (Streptococcus faecalis) was 100% and the “kill of colonies of E. coli” value (E. coli [12]) was 100%. For the same compound, the kills [13] was 100%, the “concentration at which totally killed” value (Candida albercans) was 2.5 PPM and the “minimal concentration to inhibit the microorganism” value (Staphylococcus aureus; Staphylococcus aureus 9027) was 2.5 PPM. The “minimal concentration to inhibit the microorganism” value (Staphylococcus aureus; Staphylococcus aureus 27543) was 5.0 PPM and the “minimal inhibiting concentration required for 100% kills” value [14] was 1.25 PPM.
